Measured values reported in patent US11442057B2, “Method for screening anticancer agent inhibiting binding of AIMP2-DX2 and HSP70” (MEDICINAL BIOCONVERGENCE RESEARCH CENTER, priority 2016, dated 2022).

Assays:
A549 (Lung cancer cells) = experiment: MTT assay of cell activity in A549 lung cancer cells; type: cell-based; settings: 2.5, 5, 10, 20, 40 uM
H460 cells xenograft = experiment: H460 xenograft in Balb/c nude mice; type: in vivo
Procedure: After the end of the experiment, the tumors were separated and weighed. The body weight and tumor size of the experimental animals were measured twice a week.

[1] = system: WI-26 (Normal lung cells); experiment: MTT assay of cell activity in WI-26 normal lung cells; settings: 2.5, 5, 10, 20, 40 uM
AIMP2-DX2 protein = experiment: Western blot of AIMP2-DX2 protein expression level in H460 cells; type: cell-based, human; settings: HSP70 or HSP90 inhibitor treatment
[2] = system: 293T cells overexpressing Strep-AIMP2-DX2; experiment: MTT assay of cell growth by AIMP2-DX2 in 293T cells overexpressing Strep-AIMP2-DX2; type: cell-based; settings: inhibitors 12 hours or si-HSP70
Procedure: The HSP70 inhibitors Pifithrin-u (PES), and VER155008 (VER) and the HSP90 inhibitors Geldanamycin (Gel) and PUH71(Pu) were treated on 293T cells overexpressing Strep-AIMP2-DX2 and 293T cells not over-expressing, respectively for 12 hours, and MTT (Amresco) assay was performed. Each experiment was performed three times independently. Strep-AIMP2-DX2 was overexpressed in 293T cells, in which HSP70 expression was reduced using HSP70-specific si-RNA (si-HSP70), and MTT assay was performed. Each experiment was performed three times independently.

Row | SMILES | effect on lung cancer cell A549 (cell activity, MTT) (A549 (Lung cancer cells)) | growth of cancer cells (tumor volume) (H460 cells xenograft; 50 mg/kg, 5 times a week, 10 times in total, compared with Taxol 15 mpk) | tumor weight (H460 cells xenograft; 50 mg/kg, tumors separated and weighed at end of experiment) | body weight of mice (H460 cells xenograft; during the course of the experiment) | effect on normal lung cell WI-26 (cell activity, MTT) [1] | expression level of AIMP2-DX2 protein after inhibitor treatment (AIMP2-DX2 protein) | increase in cell growth by AIMP2-DX2 [2]
1 | Cc1ccc(S(=O)(=O)N[C@@H](Cc2c[nH]c3ccccc23)C(=O)Nc2ccc(N3CCOCC3)cc2)cc1 [BC-DXI-495] | only lung cancer cells induce apoptosis | inhibited to a degree similar to that of the control group Taxol | tumor suppressive effect was also confirmed in the tumor weight | no effect on the body weight | without any effect on normal cells |  | 
2 | CC(C)NCCCn1c(Sc2cc3c(cc2I)OCO3)nc2c(N)ncnc21 [PU, PUH71] |  |  |  |  |  | not affected | 
3 | N#Cc1ccc(COC[C@H]2O[C@@H](n3c(NCc4ccc(Cl)c(Cl)c4)nc4c(N)ncnc43)[C@H](O)[C@@H]2O)cc1 [VER, VER155008] |  |  |  |  |  | decreased | No increase in cell growth by AIMP2-DX2 was observed
4 | NS(=O)(=O)C#Cc1ccccc1 [PES, Pifithrin-u] |  |  |  |  |  | decreased | No increase in cell growth by AIMP2-DX2 was observed
